What all share (assay type): in vivo
Holding throughout (conditions): 250 g/ha, after 13 days

Assay [1] relates to Ipomoea hederacea (IPOHE). In words: B2 Post-Emergence Efficacy Test 2. As to the method:
(§1) Seeds of a variety of test species are sown in standard soil in pots:— Amaranthus retoflexus (AMARE), Setaria faberi (SETFA), Echinochloa crus-galli (ECHCG), Ipomoea hederacea (IPOHE), Zea Mays (ZEAMX), Abutilon theophrasti (ABUTH). After 8 days cultivation (post-emergence) under controlled conditions in a glasshouse (at 24/16° C., day/night; 14 hours light; 65% humidity), the plants are sprayed with an aqueous spray solution derived from the formulation of the technical active ingredient in acetone/water (50:50) solution containing 0.5% Tween 20 (polyoxyethylene sorbitan monolaurate, CAS RN 9005-64-5). Compounds are applied at 250 g/ha. The test plants are then grown in a glasshouse under controlled conditions in a glasshouse (at 24/16° C., day/night; 14 hours light; 65% humidity) and watered twice daily. After 13 days, the test is evaluated for the percentage damage caused to the plant. The biological activities are assessed on a five point scale (5=80-100%; 4=60-79%; 3=40-59%; 2=20-39%; 1=0-19%). A blank value in the table is indicative that the compound was not tested on that species.

Assay [2] relates to Zea Mays (ZEAMX). As to the kind of experiment: B2 Post-Emergence Efficacy Test 2. As to the method:
as §1

The subject of assay [3] is Echinochloa crus-galli (ECHCG). In words: B2 Post-Emergence Efficacy Test 2. As to the method: as §1
The test system of assay [4] is Setaria faberi (SETFA). As to the kind of experiment: B2 Post-Emergence Efficacy Test 2. As to the method:
as §1

Assay [5] relates to Amaranthus retoflexus (AMARE). As to the kind of experiment: B2 Post-Emergence Efficacy Test 2. Here is the method: as §1
Assay [6] has as its system Abutilon theophrasti (ABUTH). As to the kind of experiment: B2 Post-Emergence Efficacy Test 2. As to the method: as §1
Assay [7] deals with Ipomoea hederacea (IPOHE). In words: B4 Pre-Emergence Efficacy Test 2. As to the method: (§2) Seeds of a variety of test species were sown in standard soil in pots: Amaranthus retoflexus (AMARE), Setaria faberi (SETFA), Echinochloa crus-galli (ECHCG), Ipomoea hederacea (IPOHE), Zea Mays (ZEAMX), Abutilon theophrasti (ABUTH). After cultivation for one day (pre-emergence) under controlled conditions in a glasshouse (at 24/16° C., day/night; 14 hours light; 65% humidity), the plants were sprayed with an aqueous spray solution derived from the formulation of the technical active ingredient in acetone/water (50:50) solution containing 0.5% Tween 20 (polyoxyethelyene sorbitan monolaurate, CAS RN 9005-64-5). Compounds are applied at 250 g/ha. The test plants were then grown in a glasshouse under controlled conditions (at 24/16° C., day/night; 14 hours light; 65% humidity) and watered twice daily. After 13 days, the test is evaluated for the percentage damage caused to the plant. The biological activities are assessed on a five point scale (5=80-100%; 4=60-79%; 3=40-59%; 2=20-39%; 1=0-19%). A blank value in the table is indicative that the compound was not tested on that species.

For assay [8], the system named is Zea Mays (ZEAMX). In words: B4 Pre-Emergence Efficacy Test 2. Here is the method:
as §2

In assay [9] the test system is Echinochloa crus-galli (ECHCG). In words: B4 Pre-Emergence Efficacy Test 2. Here is the method:
as §2

Assay [10] concerns Setaria faberi (SETFA). In words: B4 Pre-Emergence Efficacy Test 2. Here is the method: as §2
Assay [11] has as its system Amaranthus retoflexus (AMARE). As to the kind of experiment: B4 Pre-Emergence Efficacy Test 2. As to the method:
as §2

In assay [12] the test system is Abutilon theophrasti (ABUTH). In words: B4 Pre-Emergence Efficacy Test 2. Here is the method: as §2

As to `Cc1nn(C)c(=O)c(-c2c(F)ccc(Cl)c2CCc2ccc3ccn(C)c3c2)c1O` [Compound 1.355], the entries for the “percentage damage caused to the plant, five point scale, IPOHE” value (from here on “percentage damage caused … IPOHE”) in assay [1] and in assay [7] were 4 (4=60-79%) and 2 (2=20-39%), respectively. Moreover, the “percentage damage caused to the plant, five point scale, ZEAMX” value (shortened to “percentage damage caused … ZEAMX”) in the assay on Zea Mays (ZEAMX) [2] and with Zea Mays (ZEAMX) [8] was 1 (1=0-19%) throughout. For the same molecule, the results for the “percentage damage caused to the plant, five point scale, ECHCG” value (“percentage damage caused … ECHCG” below) in [3] and in assay [9] were 1 (1=0-19%) and 0, respectively. The results for the “percentage damage caused to the plant, five point scale, SETFA” value (from here on “percentage damage caused … SETFA”) in the assay with Setaria faberi (SETFA) [4] and in the assay on Setaria faberi (SETFA) [10] were 2 (2=20-39%) and 1 (1=0-19%), respectively. The “percentage damage caused to the plant, five point scale, AMARE” value (shortened to “percentage damage caused … AMARE”) in assay [5] is reported as 4 (4=60-79%); in [11], 3 (3=40-59%). Further, the “percentage damage caused to the plant, five point scale, ABUTH” value (“percentage damage caused … ABUTH” below) in assay [6] is listed as 3 (3=40-59%); in assay [12], 0.
For the molecule `Cc1nn(C)c(=O)c(-c2c(F)ccc(Cl)c2CCc2ccc3c(ccn3C)c2)c1O` [Compound 1.356], the “percentage damage caused … IPOHE” value in assay [1] is reported as 4 (4=60-79%); in [7] it was 2 (2=20-39%). For the same molecule, the “percentage damage caused … ZEAMX” value in the assay with Zea Mays (ZEAMX) [2] is 2 (2=20-39%); in the assay with Zea Mays (ZEAMX) [8], 0. Also, the “percentage damage caused … ECHCG” value in [3] is 4 (4=60-79%); in assay [9], 1 (1=0-19%). Also, the figures for the “percentage damage caused … SETFA” value in the assay with Setaria faberi (SETFA) [4] and with Setaria faberi (SETFA) [10] were 5 (5=80-100%) and 1 (1=0-19%), respectively. The entries for the “percentage damage caused … AMARE” value in [5] and in assay [11] were 5 (5=80-100%) and 3 (3=40-59%), respectively. The “percentage damage caused … ABUTH” value is recorded as 4 (4=60-79%) in assay [6] and 1 (1=0-19%) in [12].
With `Cc1nn(C)c(=O)c(-c2c(F)ccc(Cl)c2CCc2nc3ccccc3o2)c1O` [Compound 1.359], the “percentage damage caused … IPOHE” value in assay [1] is 2 (2=20-39%); in [7], 4 (4=60-79%). The “percentage damage caused … ZEAMX” value is given as 1 (1=0-19%) in the assay on Zea Mays (ZEAMX) [2] and 3 (3=40-59%) in the assay on Zea Mays (ZEAMX) [8]. The “percentage damage caused … ECHCG” value is given as 3 (3=40-59%) in assay [3] and 5 (5=80-100%) in assay [9]. Further, the results for the “percentage damage caused … SETFA” value with Setaria faberi (SETFA) [4] and in the assay with Setaria faberi (SETFA) [10] were 3 (3=40-59%) and 5 (5=80-100%), respectively. The results for the “percentage damage caused … AMARE” value in assay [5] and in assay [11] were 3 (3=40-59%) and 5 (5=80-100%), respectively. For the same molecule, the “percentage damage caused … ABUTH” value in assay [6] is 4 (4=60-79%); in [12] it was 5 (5=80-100%).
Consider `Cc1nn(C)c(=O)c(-c2c(F)ccc(Cl)c2CCc2ccc3c(c2)OC(C)(C)O3)c1O` [Compound 1.361, [3-chloro-2-[2-(2,2-dimethyl-1,3-benzodioxol-5-yl)ethyl]-6-fluoro-phenyl]-5-hydroxy-2,6-dimethyl-pyridazin-3-one], for which the “percentage damage caused … IPOHE” value is given as 5 (5=80-100%) in assay [1] and 4 (4=60-79%) in assay [7]. Further, the “percentage damage caused … ZEAMX” value is reported as 4 (4=60-79%) in the assay on Zea Mays (ZEAMX) [2] and 1 (1=0-19%) in the assay on Zea Mays (ZEAMX) [8]. Also, the “percentage damage caused … ECHCG” value is 4 (4=60-79%) in assay [3] and 3 (3=40-59%) in assay [9]. Further, the “percentage damage caused … SETFA” value in the assay on Setaria faberi (SETFA) [4] and in the assay with Setaria faberi (SETFA) [10] was 5 (5=80-100%) in each case. The “percentage damage caused … AMARE” value in [5] is recorded as 3 (3=40-59%); in assay [11], 4 (4=60-79%). In addition, the “percentage damage caused … ABUTH” value in [6] and in [12] was 5 (5=80-100%) each time.
As to `Cc1nn(C)c(=O)c(-c2c(F)ccc(Cl)c2/C=C/c2cn3ccnc3cn2)c1O` [Compound 2.363], the “percentage damage caused … IPOHE” value in assay [1] was 2 (2=20-39%); in assay [7], 5 (5=80-100%). Besides, the “percentage damage caused … ZEAMX” value in the assay on Zea Mays (ZEAMX) [2] is 0; in the assay with Zea Mays (ZEAMX) [8], 2 (2=20-39%). The “percentage damage caused … ECHCG” value in assay [3] was 0; in [9], 5 (5=80-100%). The “percentage damage caused … SETFA” value in the assay on Setaria faberi (SETFA) [4] is given as 0; in the assay on Setaria faberi (SETFA) [10] it was 4 (4=60-79%). For the same molecule, the “percentage damage caused … AMARE” value in [5] is on record as 1 (1=0-19%); in assay [11], 5 (5=80-100%). For the same molecule, the “percentage damage caused … ABUTH” value is recorded as 0 in assay [6] and 5 (5=80-100%) in assay [12].

These data come from patent publication US12540128B2, “Substituted pyridazinones as herbicides” (SYNGENTA CROP PROTECTION AG, priority 2019, dated 2026).
